The values that follow come from US11878973B2, “Bicyclic compounds and their uses” (NOVARTIS AG, priority 2021, dated 2024).

One test concerns the target WRN helicase (Homo sapiens (Human), UniProt Q14191). Description: In vitro enzymatic activity assay on WRN helicase (DNA dependent ATPase assay, ADP-Glo). Format: biochemical. The following applies: geometric means of at least 2 determinations; read-out: WRN ATPase Activity (IC50). In outline: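 The WRN helicase core (aa N517-P1238), 10 nM, hydrolysed 300 µM ATP in the presence of 0.2 nM FLAP26 DNA (Tris pH 7.5, 2 mM MgCl2, 50 mM NaCl) for 30 min at room temperature. ADP formed was quantified by ADP-Glo luminescence.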

Another test relates to SW48 cells. Description: Proliferation assay SW48 (CellTiterGlo, 96 hours). The following applies: Homo sapiens, SW48, read-out: Proliferation Assay SW48 (GI50). For orientation: Cellular ATP, detected with luciferase, serves as a proxy for viable cell number.
The next test deals with DLD1-WRN-KO cells. As to the kind of experiment: Proliferation assay DLD1-WRN-KO (CellTiterGlo, 96 hours; off-target effects). The settings on record: Homo sapiens, read-out: Proliferation Assay DLD1-WRN-KO (GI50).

In general, IC50 refers to the concentration that inhibits the measured activity by half.

Molecules are shown by their SMILES. A value given as a limit tells only on which side of the number the result lay.

Chain of WRN helicase (Q14191 517-1238): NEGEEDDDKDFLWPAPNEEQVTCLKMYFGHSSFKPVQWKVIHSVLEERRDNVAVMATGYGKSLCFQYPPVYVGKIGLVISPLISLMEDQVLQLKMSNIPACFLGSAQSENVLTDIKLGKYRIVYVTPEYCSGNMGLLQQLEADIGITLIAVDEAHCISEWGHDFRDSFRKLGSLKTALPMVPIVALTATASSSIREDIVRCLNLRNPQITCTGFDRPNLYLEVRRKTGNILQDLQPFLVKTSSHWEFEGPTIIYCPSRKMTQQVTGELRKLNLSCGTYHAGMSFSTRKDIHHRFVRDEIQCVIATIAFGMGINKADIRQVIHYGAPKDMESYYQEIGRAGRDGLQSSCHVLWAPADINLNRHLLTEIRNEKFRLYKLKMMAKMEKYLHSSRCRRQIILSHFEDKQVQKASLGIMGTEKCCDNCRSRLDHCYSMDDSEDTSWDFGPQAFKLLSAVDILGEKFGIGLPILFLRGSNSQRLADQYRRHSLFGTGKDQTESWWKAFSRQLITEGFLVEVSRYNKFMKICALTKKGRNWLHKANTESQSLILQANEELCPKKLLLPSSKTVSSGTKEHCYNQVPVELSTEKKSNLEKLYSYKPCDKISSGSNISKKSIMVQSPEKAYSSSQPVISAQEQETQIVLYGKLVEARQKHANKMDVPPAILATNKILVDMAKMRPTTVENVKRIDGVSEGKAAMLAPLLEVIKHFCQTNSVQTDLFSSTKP
Procedure for DLD1-WRN-KO cells: The WRN-knockdown insensitive colon carcinoma cell line DLD-1 (RRID: CVCL_0248) was obtained from the Korean Cell Line Bank (KCLB), and used to generate a derivative in which the endogenous WRN gene copies were knocked out by CRISPR-mediated editing using standard CRISPR methods. The resulting cell line, DLD1-WRN—KO, was used to assess potential off-target compound effects.
All cells were maintained at 37° C. in a humidified 5% CO2 incubator.
For data analysis, the assay background signal that was determined in wells containing medium, but no cells, was subtracted from all other data points prior to further calculations. The extent of growth inhibition and potential cell kill was assessed by comparing the ATP levels (measured using CellTiterGlo, Promega) in compound-treated cells with those present at the time of compound addition. […] 100%, 0% and −100% signify absence of growth inhibition, growth stasis, and complete cell kill, respectively. Compound concentrations leading to half-maximal growth inhibition (G150) and residual cell viability at the highest tested compound concentration (Data (cmax), expressed in percent) were routinely calculated. Data analysis can also be carried out using commercially available software designed to derive IC50 values using 4-parameter fits (e.g. GraphPad Prism, XL fit). The reported GI50 values are the geometrical means of at least 2 independent replicates.

Take `CCc1c(N2CCN(C(=O)c3ncccc3O)CC2)c(=O)n2nc(C3=CCOCC3)nc2n1CC(=O)Nc1ccc(C(F)(F)F)nc1C` [Example 35, 2-(2-(3,6-dihydro-2H-pyran-4-yl)-5-ethyl-6-(4-(3-hydroxypicolinoyl)piperazin-1-yl)-7-oxo-[1,2,4]triazolo[1,5-a]pyrimidin-4(7H)-yl)-N-(2-methyl-6-(trifluoromethyl)pyridin-3-yl)acetamide]: at WRN helicase, the IC50 turned out to be 190 nM. For the same compound, the GI50 with SW48 cells is 400 nM; with DLD1-WRN-KO cells, more than 10000 nM.

Regarding `CCc1c(N2CCN(C(=O)c3nccc(Cl)c3O)CC2)c(=O)n2nc(C3=CCOCC3)nc2n1CC(=O)Nc1ccc(C(F)(F)F)nc1C` [Example 36, 2-(6-(4-(4-chloro-3-hydroxypicolinoyl)piperazin-1-yl)-2-(3,6-dihydro-2H-pyran-4-yl)-5-ethyl-7-oxo-[1,2,4]triazolo[1,5-a]pyrimidin-4(7H)-yl)-N-(2-methyl-6-(trifluoromethyl)pyridin-3-yl)acetamide], the IC50 at WRN helicase turned out to be 930 nM. The GI50 was 1780 nM in the test with SW48 cells and more than 10000 nM in the test on DLD1-WRN-KO cells.

For `CCc1c(N2CCN(C(=O)c3nccc(Cl)c3O)CC2)c(=O)n2nc(C3=CCOCC3)nc2n1CC(=O)Nc1ccc(C(F)(F)F)c(F)c1C` [Example 37, 2-(6-(4-(4-chloro-3-hydroxypicolinoyl)piperazin-1-yl)-2-(3,6-dihydro-2H-pyran-4-yl)-5-ethyl-7-oxo-[1,2,4]triazolo[1,5-a]pyrimidin-4(7H)-yl)-N-(3-fluoro-2-methyl-4-(trifluoromethyl)phenyl)acetamide], at WRN helicase, the IC50 came to 20 nM. In addition, the GI50 was 30 nM in the test with SW48 cells and more than 10000 nM in the test on DLD1-WRN-KO cells.

As for `CCc1c(N2CCN(C(=O)c3ncccc3O)CC2)c(=O)n2nc(C3=CCOCC3)nc2n1CC(=O)Nc1ccc(C(F)(F)F)c(F)c1C` [Example 38, 2-(2-(3,6-dihydro-2H-pyran-4-yl)-5-ethyl-6-(4-(3-hydroxypicolinoyl)piperazin-1-yl)-7-oxo-[1,2,4]triazolo[1,5-a]pyrimidin-4(7H)-yl)-N-(3-fluoro-2-methyl-4-(trifluoromethyl)phenyl)acetamide], the IC50 on WRN helicase was 40 nM. For the same compound, the GI50 was 50 nM in the test on SW48 cells and more than 10000 nM in the test with DLD1-WRN-KO cells.

`CCc1c(N2CCN(C(=O)c3nccc(Cl)c3O)CC2)c(=O)n2nc(C3=CCOCC3)nc2n1CC(=O)Nc1ccc(C(F)(F)F)cc1Cl` [Example 39, 2-(6-(4-(4-chloro-3-hydroxypicolinoyl)piperazin-1-yl)-2-(3,6-dihydro-2H-pyran-4-yl)-5-ethyl-7-oxo-[1,2,4]triazolo[1,5-a]pyrimidin-4(7H)-yl)-N-(2-chloro-4-(trifluoromethyl)phenyl)acetamide]: the IC50 at WRN helicase worked out at 40 nM. The GI50 with SW48 cells is 50 nM; in the test on DLD1-WRN-KO cells it was more than 10000 nM.

For `CCc1c(N2CCN(C(=O)c3nccc(F)c3O)CC2)c(=O)n2nc(C3=CCOCC3)nc2n1CC(=O)Nc1ccc(C(F)(F)F)cc1Cl` [Example 40, N-(2-chloro-4-(trifluoromethyl)phenyl)-2-(2-(3,6-dihydro-2H-pyran-4-yl)-5-ethyl-6-(4-(4-fluoro-3-hydroxypicolinoyl)piperazin-1-yl)-7-oxo-[1,2,4]triazolo[1,5-a]pyrimidin-4(7H)-yl)acetamide], the IC50 at WRN helicase was determined as 20 nM. The GI50 is 30 nM in the test with SW48 cells and more than 10000 nM with DLD1-WRN-KO cells.

With `CCc1c(N2CCN(C(=O)c3nc(C)cc(F)c3O)CC2)c(=O)n2nc(C3=CCOCC3)nc2n1CC(=O)Nc1ccc(C(F)(F)F)cc1Cl` [Example 41, N-(2-chloro-4-(trifluoromethyl)phenyl)-2-(2-(3,6-dihydro-2H-pyran-4-yl)-5-ethyl-6-(4-(4-fluoro-3-hydroxy-6-methylpicolinoyl)piperazin-1-yl)-7-oxo-[1,2,4]triazolo[1,5-a]pyrimidin-4(7H)-yl)acetamide], the IC50 on WRN helicase amounted to 40 nM. Moreover, the figures for the GI50 in the test on SW48 cells and in the test on DLD1-WRN-KO cells were 40 nM and more than 10000 nM, respectively.

For the compound `CCc1c(N2CCN(C(=O)c3ncncc3O)CC2)c(=O)n2nc(C3=CCOCC3)nc2n1CC(=O)Nc1ccc(C(F)(F)F)cc1Cl` [Example 44, N-(2-chloro-4-(trifluoromethyl)phenyl)-2-(2-(3,6-dihydro-2H-pyran-4-yl)-5-ethyl-6-(4-(5-hydroxypyrimidine-4-carbonyl)piperazin-1-yl)-7-oxo-[1,2,4]triazolo[1,5-a]pyrimidin-4(7H)-yl)acetamide], on WRN helicase, the IC50 was found to be 110 nM. Further, the GI50 with SW48 cells was 80 nM; with DLD1-WRN-KO cells, more than 10000 nM.

Turning to `CCc1c(N2CCN(C(=O)c3ncccc3O)CC2)c(=O)n2nc(C3=CCOCC3)nc2n1CC(=O)Nc1ccc(C(F)(F)F)nc1Cl` [Example 45, N-(2-chloro-6-(trifluoromethyl)pyridin-3-yl)-2-(2-(3,6-dihydro-2H-pyran-4-yl)-5-ethyl-6-(4-(3-hydroxypicolinoyl)piperazin-1-yl)-7-oxo-[1,2,4]triazolo[1,5-a]pyrimidin-4(7H)-yl)acetamide], the half-maximal inhibitory concentration (IC50) at WRN helicase was 130 nM. Also, the GI50 with SW48 cells was 80 nM; in the test on DLD1-WRN-KO cells it was more than 10000 nM.

Consider `CCc1c(N2CCN(C(=O)c3nccc(Cl)c3O)CC2)c(=O)n2nc(C3=CCOCC3)nc2n1CC(=O)Nc1ccc(C(F)(F)F)nc1Cl` [Example 46, 2-(6-(4-(4-chloro-3-hydroxypicolinoyl)piperazin-1-yl)-2-(3,6-dihydro-2H-pyran-4-yl)-5-ethyl-7-oxo-[1,2,4]triazolo[1,5-a]pyrimidin-4(7H)-yl)-N-(2-chloro-6-(trifluoromethyl)pyridin-3-yl)acetamide], for which, at WRN helicase, the IC50 was 110 nM. Moreover, the GI50 is 110 nM in the test on SW48 cells and more than 10000 nM in the test with DLD1-WRN-KO cells.

Consider `CCc1c(N2CCN(C(=O)c3ncnc(C)c3O)CC2)c(=O)n2nc(C3=CCOCC3)nc2n1CC(=O)Nc1ccc(C(F)(F)F)nc1Cl` [Example 47, N-(2-chloro-6-(trifluoromethyl)pyridin-3-yl)-2-(2-(3,6-dihydro-2H-pyran-4-yl)-5-ethyl-6-(4-(5-hydroxy-6-methylpyrimidine-4-carbonyl)piperazin-1-yl)-7-oxo-[1,2,4]triazolo[1,5-a]pyrimidin-4(7H)-yl)acetamide], for which the IC50 on WRN helicase worked out at 140 nM. The GI50 was 170 nM in the test with SW48 cells and more than 10000 nM in the test on DLD1-WRN-KO cells.

Take `CCc1c(N2CCN(C(=O)c3nccc(F)c3O)CC2)c(=O)n2nc(C3=CCOCC3)nc2n1CC(=O)Nc1ccc(C(F)(F)F)nc1Cl` [Example 48, N-(2-chloro-6-(trifluoromethyl)pyridin-3-yl)-2-(2-(3,6-dihydro-2H-pyran-4-yl)-5-ethyl-6-(4-(4-fluoro-3-hydroxypicolinoyl)piperazin-1-yl)-7-oxo-[1,2,4]triazolo[1,5-a]pyrimidin-4(7H)-yl)acetamide]: the IC50 on WRN helicase stood at 70 nM. Further, the figures for the GI50 in the test with SW48 cells and with DLD1-WRN-KO cells were 80 nM and more than 10000 nM, respectively.

On to `CCc1c(N2CCN(C(=O)c3nc(C)cc(F)c3O)CC2)c(=O)n2nc(C3=CCOCC3)nc2n1CC(=O)Nc1ccc(C(F)(F)F)nc1Cl` [Example 49, N-(2-chloro-6-(trifluoromethyl)pyridin-3-yl)-2-(2-(3,6-dihydro-2H-pyran-4-yl)-5-ethyl-6-(4-(4-fluoro-3-hydroxy-6-methylpicolinoyl)piperazin-1-yl)-7-oxo-[1,2,4]triazolo[1,5-a]pyrimidin-4(7H)-yl)acetamide], for which the IC50 at WRN helicase was found to be 120 nM. Moreover, the GI50 is 120 nM in the test with SW48 cells and more than 10000 nM with DLD1-WRN-KO cells.
